Measured values from ChEMBL document CHEMBL1201861, “Genomics of Drug Sensitity in Cancer screening data, Wellcome Trust Sanger Institute”.

Experiments:
Assay in all cases: cells
COR-L23 = assay type: functional, cell-based, Homo sapiens; settings: Homo sapiens, COR-L23;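 note: cell viability assay measuring how strongly compounds suppress growth of COR-L23 cells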
Description: SANGER: Inhibition of human COR-L23 cell growth in a cell viability assay.

ChaGo-K-1 = assay type: functional, cell-based, Homo sapiens; settings: Homo sapiens, ChaGo-K-1;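 note: growth inhibition of ChaGo-K-1 cells, read out with a cell viability assay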
Description: SANGER: Inhibition of human ChaGo-K-1 cell growth in a cell viability assay.

D-566MG = assay type: functional, cell-based, Homo sapiens; settings: Homo sapiens, D-566MG
DK-MG = assay type: functional, cell-based, Homo sapiens; settings: Homo sapiens, DK-MG;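 note: growth inhibition of DK-MG cells, read out with a cell viability assay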
Description: SANGER: Inhibition of human DK-MG cell growth in a cell viability assay.

DOK = assay type: functional, cell-based, Homo sapiens; settings: Homo sapiens, DOK;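 note: cell viability assay read-out, values reflect inhibition of cell growth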
Description: SANGER: Inhibition of human DOK cell growth in a cell viability assay.

GCT = assay type: functional, cell-based, Homo sapiens; settings: Homo sapiens, GCT;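 note: GCT cell line proliferation inhibition, read out with a cell viability assay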
Description: SANGER: Inhibition of human GCT cell growth in a cell viability assay.

HCC1954 = assay type: functional, cell-based, Homo sapiens; settings: Homo sapiens, HCC1954;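 note: growth inhibition of human HCC1954 cells, read out with a cell viability assay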
Description: SANGER: Inhibition of human HCC1954 cell growth in a cell viability assay.

HGC-27 = assay type: functional, cell-based, Homo sapiens; settings: Homo sapiens, HGC-27;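 note: growth inhibition of human HGC-27 cells, read out in a cell viability assay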
Description: SANGER: Inhibition of human HGC-27 cell growth in a cell viability assay.

HN = assay type: functional, cell-based, Homo sapiens; settings: Homo sapiens, HN
Description: SANGER: Inhibition of human HN cell growth in a cell viability assay.

HO-1-N-1 = assay type: functional, cell-based, Homo sapiens; settings: Homo sapiens, HO-1-N-1;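 note: growth inhibition of human HO-1-N-1 cells, read out with a cell viability assay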
Description: SANGER: Inhibition of human HO-1-N-1 cell growth in a cell viability assay.

HuCCT-1 = assay type: functional, cell-based, Homo sapiens, HuCCT1; settings: Homo sapiens, HuCCT-1;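 note: growth inhibition of HuCCT-1 cells, read out by a cell viability assay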
Description: SANGER: Inhibition of human HuCCT1 cell growth in a cell viability assay.

HuP-T3 = assay type: functional, cell-based, Homo sapiens; settings: Homo sapiens, HuP-T3;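 note: HuP-T3 cell growth inhibition, read out with a cell viability assay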
Description: SANGER: Inhibition of human HuP-T3 cell growth in a cell viability assay.

KYSE-270 = assay type: functional, cell-based, Homo sapiens; settings: Homo sapiens, KYSE-270;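 note: cell growth inhibition measured with a viability assay in the human KYSE-270 line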
Description: SANGER: Inhibition of human KYSE-270 cell growth in a cell viability assay.

MEL-HO = assay type: functional, cell-based, Homo sapiens; settings: Homo sapiens, MEL-HO
Description: SANGER: Inhibition of human MEL-HO cell growth in a cell viability assay.

MKN-7 = assay type: functional, cell-based, Homo sapiens; settings: Homo sapiens, MKN-7;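 note: growth inhibition of MKN-7 cells, read out with a cell viability assay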
Description: SANGER: Inhibition of human MKN7 cell growth in a cell viability assay.

NCI-H1693 = assay type: functional, cell-based, Homo sapiens; settings: Homo sapiens, NCI-H1693;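 note: growth inhibition of the human cell line, read out with a cell viability assay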
Description: SANGER: Inhibition of human NCI-H1693 cell growth in a cell viability assay.

NCI-H520 = assay type: functional, cell-based, Homo sapiens; settings: Homo sapiens, NCI-H520;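 note: growth inhibition of NCI-H520 cells, measured by a cell viability assay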
Description: SANGER: Inhibition of human NCI-H520 cell growth in a cell viability assay.

NCI-H630 = assay type: functional, cell-based, Homo sapiens; settings: Homo sapiens, NCI-H630;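 note: growth inhibition of NCI-H630 cells, read out with a cell viability assay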
Description: SANGER: Inhibition of human NCI-H630 cell growth in a cell viability assay.

NY = assay type: functional, cell-based, Homo sapiens; settings: Homo sapiens, NY
Description: SANGER: Inhibition of human NY cell growth in a cell viability assay.

OC-314 = assay type: functional, cell-based, Homo sapiens; settings: Homo sapiens, OC-314
Description: SANGER: Inhibition of human OC-314 cell growth in a cell viability assay.

PC-14 = assay type: functional, cell-based, Homo sapiens; settings: Homo sapiens, PC-14;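 note: cell viability assay measuring inhibition of PC-14 cell growth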
Description: SANGER: Inhibition of human PC-14 cell growth in a cell viability assay.

RCM-1 = assay type: functional, cell-based, Homo sapiens; settings: Homo sapiens, RCM-1;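 note: growth inhibition of the RCM-1 line, determined with a cell viability readout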
Description: SANGER: Inhibition of human RCM-1 cell growth in a cell viability assay.

SAS = assay type: functional, cell-based, Homo sapiens; settings: Homo sapiens, SAS;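 note: growth inhibition of SAS cells, read out with a cell viability assay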
Description: SANGER: Inhibition of human SAS cell growth in a cell viability assay.

SF-295 = assay type: functional, cell-based, Homo sapiens; settings: Homo sapiens, SF-295;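 note: growth inhibition of SF-295 cells, read out with a cell viability assay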
Description: SANGER: Inhibition of human SF295 cell growth in a cell viability assay.

SK-LU-1 = assay type: functional, cell-based, Homo sapiens; settings: Homo sapiens, SK-LU-1;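 note: cell viability assay measuring growth inhibition of human SK-LU-1 cells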
Description: SANGER: Inhibition of human SK-LU-1 cell growth in a cell viability assay.

SK-MES-1 = assay type: functional, cell-based, Homo sapiens; settings: Homo sapiens, SK-MES-1;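 note: growth inhibition of human SK-MES-1 cells, read out with a cell viability assay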
Description: SANGER: Inhibition of human SK-MES-1 cell growth in a cell viability assay.

SW13 = assay type: functional, cell-based, Homo sapiens; settings: Homo sapiens, SW13;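 note: IC50 is inhibition of SW13 cell growth, read out with a cell viability assay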
Description: SANGER: Inhibition of human SW13 cell growth in a cell viability assay.

SW1783 = assay type: functional, cell-based, Homo sapiens; settings: Homo sapiens, SW1783;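 note: cell growth inhibition measured with a viability assay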
Description: SANGER: Inhibition of human SW1783 cell growth in a cell viability assay.

SW-620 = assay type: functional, cell-based, Homo sapiens; settings: Homo sapiens, SW-620;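 note: growth inhibition of human SW-620 cells, measured by a cell viability assay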
Description: SANGER: Inhibition of human SW620 cell growth in a cell viability assay.

SW756 = assay type: functional, cell-based, Homo sapiens; settings: Homo sapiens, SW756;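 note: growth inhibition of human SW756 cells, read out with a cell viability assay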
Description: SANGER: Inhibition of human SW756 cell growth in a cell viability assay.

SW780 = assay type: functional, cell-based, Homo sapiens; settings: Homo sapiens, SW780;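 note: growth inhibition of the cells, read out with a cell viability assay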
Description: SANGER: Inhibition of human SW780 cell growth in a cell viability assay.

T47D = assay type: functional, cell-based, Homo sapiens; settings: Homo sapiens, T47D;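 note: growth inhibition of human T47D cells, measured with a cell viability assay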
Description: SANGER: Inhibition of human T47D cell growth in a cell viability assay.

A-431 = assay type: functional, cell-based, Homo sapiens; settings: Homo sapiens, A-431;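 note: growth inhibition of A-431 cells, determined with a cell viability read-out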
Description: SANGER: Inhibition of human A431 cell growth in a cell viability assay.

A549 = assay type: functional, cell-based, Homo sapiens; settings: Homo sapiens, A549;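 note: growth inhibition of A549 cells, read out with a cell viability assay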
Description: SANGER: Inhibition of human A549 cell growth in a cell viability assay.

BFTC-909 = assay type: functional, cell-based, Homo sapiens; settings: Homo sapiens, BFTC-909
Description: SANGER: Inhibition of human BFTC-909 cell growth in a cell viability assay.

UACC-62 = assay type: functional, cell-based, Homo sapiens; settings: Homo sapiens, UACC-62;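 note: growth inhibition of human UACC-62 cells, read out by a cell viability assay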
Description: SANGER: Inhibition of human UACC-62 cell growth in a cell viability assay.

UMUC3 = assay type: functional, cell-based, Homo sapiens; settings: Homo sapiens, UMUC3;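 note: growth inhibition of human UM-UC-3 cells, read out with a cell viability assay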
Description: SANGER: Inhibition of human UM-UC-3 cell growth in a cell viability assay.

VMRC-RCZ = assay type: functional, cell-based, Homo sapiens; settings: Homo sapiens, VMRC-RCZ;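 note: growth inhibition measured with a cell viability assay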
Description: SANGER: Inhibition of human VMRC-RCZ cell growth in a cell viability assay.

YAPC = assay type: functional, cell-based, Homo sapiens; settings: Homo sapiens, YAPC;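 note: growth inhibition of YAPC cells, measured with a cell viability assay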
Description: SANGER: Inhibition of human YAPC cell growth in a cell viability assay.

COc1cc2c(Nc3ccc(NC(=O)c4ccccc4)cc3)ncnc2cc1OCCCN1CCOCC1
IC50 (COR-L23): > 4 µM
IC50 (ChaGo-K-1): > 4 µM
IC50 (D-566MG): 1.79 µM
IC50 (DK-MG): > 4 µM
IC50 (DOK): > 4 µM
IC50 (GCT): 3.77 µM
IC50 (HCC1954): > 4 µM
IC50 (HGC-27): > 4 µM
IC50 (HN): 1.93 µM
IC50 (HO-1-N-1): 2.15 µM
IC50 (HuCCT-1): > 4 µM
IC50 (HuP-T3): > 4 µM
IC50 (KYSE-270): > 4 µM
IC50 (MEL-HO): > 4 µM
IC50 (MKN-7): > 4 µM
IC50 (NCI-H1693): > 4 µM
IC50 (NCI-H520): > 4 µM
IC50 (NCI-H630): > 4 µM
IC50 (NY): > 4 µM
IC50 (OC-314): > 4 µM
IC50 (PC-14): > 4 µM
IC50 (RCM-1): > 4 µM
IC50 (SAS): > 4 µM
IC50 (SF-295): > 4 µM
IC50 (SK-LU-1): > 4 µM
IC50 (SK-MES-1): > 4 µM
IC50 (SW13): > 4 µM
IC50 (SW1783): > 4 µM
IC50 (SW-620): > 4 µM
IC50 (SW756): > 4 µM
IC50 (SW780): 3.06 µM
IC50 (T47D): > 4 µM
IC50 (A-431): > 4 µM
IC50 (A549): 2.64 µM
IC50 (BFTC-909): > 4 µM
IC50 (UACC-62): > 4 µM
IC50 (UMUC3): > 4 µM
IC50 (VMRC-RCZ): > 4 µM
IC50 (YAPC): > 4 µM

CC(C)CCN1c2nc(Nc3cc(F)c(O)c(F)c3)ncc2N(C)C(=O)C1C (configuration not stated)
IC50 (COR-L23): 4.74 µM
IC50 (ChaGo-K-1): > 5 µM
IC50 (D-566MG): 2.91 µM
IC50 (DK-MG): > 5 µM
IC50 (DOK): 3.77 µM
IC50 (GCT): 2.31 µM
IC50 (HCC1954): 4.26 µM
IC50 (HGC-27): > 5 µM
IC50 (HN): 1.61 µM
IC50 (HO-1-N-1): 3.8 µM
IC50 (HuCCT-1): > 5 µM
IC50 (HuP-T3): > 5 µM
IC50 (KYSE-270): > 5 µM
IC50 (MEL-HO): > 5 µM
IC50 (MKN-7): > 5 µM
IC50 (NCI-H1693): > 5 µM
IC50 (NCI-H520): > 5 µM
IC50 (NCI-H630): > 5 µM
IC50 (NY): > 5 µM
IC50 (OC-314): > 5 µM
IC50 (PC-14): > 5 µM
IC50 (RCM-1): > 5 µM
IC50 (SAS): > 5 µM
IC50 (SF-295): > 5 µM
IC50 (SK-LU-1): > 5 µM
IC50 (SK-MES-1): 3.73 µM
IC50 (SW13): > 5 µM
IC50 (SW1783): > 5 µM
IC50 (SW-620): > 5 µM
IC50 (SW756): > 5 µM
IC50 (SW780): > 5 µM
IC50 (T47D): > 5 µM
IC50 (A-431): 4.14 µM
IC50 (A549): 1.31 µM
IC50 (BFTC-909): > 5 µM
IC50 (UACC-62): > 5 µM
IC50 (UMUC3): > 5 µM
IC50 (VMRC-RCZ): > 5 µM
IC50 (YAPC): > 5 µM

Nc1cccc2c1CN(C1CCC(=O)NC1=O)C2=O (configuration not stated) [LENALIDOMIDE]
IC50 (COR-L23): > 5 µM
IC50 (ChaGo-K-1): > 5 µM
IC50 (D-566MG): > 5 µM
IC50 (DK-MG): > 5 µM
IC50 (DOK): > 5 µM
IC50 (GCT): > 5 µM
IC50 (HCC1954): > 5 µM
IC50 (HGC-27): > 5 µM
IC50 (HN): > 5 µM
IC50 (HO-1-N-1): > 5 µM
IC50 (HuCCT-1): > 5 µM
IC50 (HuP-T3): > 5 µM
IC50 (KYSE-270): > 5 µM
IC50 (MEL-HO): > 5 µM
IC50 (MKN-7): > 5 µM
IC50 (NCI-H1693): > 5 µM
IC50 (NCI-H520): > 5 µM
IC50 (NCI-H630): > 5 µM
IC50 (NY): > 5 µM
IC50 (OC-314): > 5 µM
IC50 (PC-14): > 5 µM
IC50 (RCM-1): > 5 µM
IC50 (SAS): > 5 µM
IC50 (SF-295): > 5 µM
IC50 (SK-LU-1): > 5 µM
IC50 (SK-MES-1): > 5 µM
IC50 (SW13): > 5 µM
IC50 (SW1783): > 5 µM
IC50 (SW-620): > 5 µM
IC50 (SW756): > 5 µM
IC50 (SW780): > 5 µM
IC50 (T47D): > 5 µM
IC50 (A-431): > 5 µM
IC50 (A549): > 5 µM
IC50 (BFTC-909): > 5 µM
IC50 (UACC-62): > 5 µM
IC50 (UMUC3): > 5 µM
IC50 (VMRC-RCZ): > 5 µM
IC50 (YAPC): > 5 µM
